Source: paper PMC12040169 (PLOS Biology, 2025)

experiment: in vitro; conditions: human, hela cells, % viability

Compound	viability at 28.5 h, 10 µM
O=C(COc1ccc(Cl)cc1)NNC(=O)c1cccnc1 [CBK261044]	97.4%
CNC(=O)C1CCN(S(=O)(=O)c2ccc(C(C)(C)C)cc2)CC1 [CBK051544]	90.3%
O=C(c1cccc(S(=O)(=O)N2CCOCC2)c1)N(Cc1ccc(F)cc1)Cc1ccco1 [CBK265885]	92.8%
O=C1NC(=O)C(c2ccccc2)(c2ccccc2)N1 [CBK005292]	108%
Cn1ncc2c(NCCCC3CCOC3)nc(C(C)(C)C)nc21 (centres unmarked) [CBK307363]	113%
O=C(/C=C/c1cccc([N+](=O)[O-])c1)NC(=S)Nc1ccc(-c2nc3ccccc3[nH]2)cc1 [CBK264376]	102%
Cn1c(=O)c2c(nc(CN3CCOCC3)n2CCN2CCOCC2)n(C)c1=O [CBK269560]	106%
CC(C)c1ccc(S(=O)(=O)N2CC3CC2CO3)cc1 (centres unmarked) [CBK050999]	97.3%
Cc1ccc(CC(=O)Nc2nc(Cc3n[nH]c(=S)n3C)cs2)cc1 [CBK296766]	90.5%
COc1ccc(CSc2nnc(SCc3ccc(C(=O)O)cc3)s2)cc1 [CBK300477]	104%
O=C1C=C(OCc2ccccc2)CN1 [CBK020360]	94.4%
O=c1[nH]c2n[nH]c(=O)n2c2c(-c3ccccc3)c[nH]c12 [CBK288054]	84.2%
O=C(NCCN1CCOCC1)c1cc(-c2cccc(Br)c2)nc2ccccc12 [CBK263625]	90.2%
O=C(Cc1c[nH]cn1)Nc1cccc2cc[nH]c12 [CBK160097]	86.2%
CCOC(=O)c1ccccc1NC(=O)N[C@@H]1CC[C@@]2(c3ccc(OC)c(OC)c3)CCN(C)[C@H]2C1 [CBK047494T]	94.9%
CC(C)(C)OC(=O)C1(NC(=O)Cc2cn3ccccc3n2)CCCC1 [CBK305500]	95.9%
O=C(O)C1CC1C(=O)N1CC2(CCCC2)c2c(F)cccc21 (centres unmarked) [CBK306360]	112%
CCN(CC)C(=O)c1ccsc1NS(=O)(=O)c1cccc2cccnc12 [CBK042317]	87.1%
Cc1nc(N)sc1-c1csc(Nc2ccc(Cl)cn2)n1 [CBK288532]	61.4%
O=C1CN(C(=O)Nc2ccccc2Cl)CCN1 [CBK155862]	96.7%
NC(=S)N1N=C2CCCCC2C1c1ccccc1 (centres unmarked) [CBK288371]	84.2%
CN1CCN(C(=O)c2[nH]c3ccccc3c2NS(=O)(=O)Cc2ccccc2)CC1 [CBK050046]	93.9%
C=CCNS(=O)(=O)c1ccc(NC(=O)Nc2ccc(Cl)cc2)cc1 [CBK269315]	101%

Compound	viability at 28.5 h, 10 µM
O=C(O)C/N=C1/CCCc2ccccc2N1 [CBK261809]	90.7%
O=C(CCS(=O)(=O)c1ccccc1)Nc1cccnc1N1CCNCC1 [CBK028262T]	103%
O=C(CCN1CCCC1Cn1cncn1)NCCc1ccccc1 (centres unmarked) [CBK305677]	92.9%
Cc1cc(O)nc(C(C)N2CCOC(C(C)(C)C)C2)n1 (centres unmarked) [CBK304097]	104%
O=C(CCn1c(C(F)F)cc2cccnc21)NCC1CCCO1 (centres unmarked) [CBK282165]	83%
Cn1c(/C(C#N)=C\c2ccc(-c3ccc(S(N)(=O)=O)cc3)o2)nc2ccccc21 [CBK266380]	95%
CN1C(=O)CC2(C1=O)C(=O)N(Cc1nc(-c3ccc(Cl)cc3)no1)c1ccc(F)cc12 (centres unmarked) [CBK075442]	87.8%
CC(C)Nc1nc2ccccc2nc1OC1CCN(C)C1 (centres unmarked) [CBK113283]	81.1%
Cc1ccc(S(N)(=O)=O)cc1C(=O)Nc1nncs1 [CBK050456]	105%
CCOC(=O)c1c(NC(=O)CNCc2cccnc2)sc2c1CCCC2 [CBK304577]	94%
Cc1cc(C)c2c(c1)C1(C(=O)N2)C(C#N)=C(N)Oc2[nH]nc(-c3ccccc3)c21 (centres unmarked) [CBK267367]	100%
Cc1nn(-c2ccccc2)c(Cl)c1CN1C(=O)NC2(CCCCC2)C1=O [CBK306043]	83.8%
Cc1ccc2[nH]c(Cc3ccc(NC(=O)c4cccc5c(=O)cc(C)[nH]c45)cc3)nc2c1 [CBK285814]	99.5%
COc1ccc(C(=O)c2sc3nc(C)c(C)c(C)c3c2N)cc1OC [CBK074427]	72.7%
O=C(Nc1ccccc1OC1CCNCC1)c1ccccc1 [CBK050238T]	115%
NC(=O)C1(N2CCCCC2)CCN(C(=O)CCCC(=O)O)CC1 [CBK286575]	84.2%
CC(C)(C)OC(=O)N1CCCN(c2ccc(S(=O)(=O)c3ccccc3)c([N+](=O)[O-])c2)CC1 [CBK138502]	99.2%
COc1ccccc1CCCNC(=O)c1csc(C(C)=O)c1 [CBK282513]	98.8%
CCCCn1c(NCc2nc3ccccc3n2C)nc2ccccc21 [CBK264177]	87.2%
CN(C)CCn1c([C@@H]2CCCO2)cc2cccnc21 [CBK282288]	105%
CCc1ccc(-c2ccc(C(=O)OC)cn2)cc1 [CBK149232]	95.2%
Nc1nc(OCCc2cccs2)cnc1-c1ccc(OC(F)(F)F)cc1 [CBK145116]	92.7%
CN1CCCC1c1cccnc1 (centres unmarked) [CBK015659]	94%

Compound	viability at 28.5 h, 10 µM
O=C(O)c1nc2n(n1)C(C(F)(F)F)CC(c1cccs1)N2 (centres unmarked) [CBK026415]	97%
CCC(NC(=O)CCc1cc2n(n1)CCNC2)c1cn2cccnc2n1 (centres unmarked) [CBK307090]	87.1%
CCOC(=O)C(C)NC(=O)c1ccc2nc(C)sc2c1 (centres unmarked) [CBK282508]	85.5%
Cc1nc(-c2ccccc2)sc1C(=O)C1=C(O)C(=O)N(CCCN2CCOCC2)C1c1cccs1 (centres unmarked) [CBK266601]	91.4%
CCn1c(=O)n(CC(=O)N2C(C)CCCC2C)c2cccnc21 (centres unmarked) [CBK283825]	102%
O=C(C1CC1)N1CC2CCCC(C1)C2(O)c1cccnc1F (centres unmarked) [CBK282889]	99.6%
O=C(O)c1cc(S(=O)(=O)Nc2ccc(F)cc2)c(Cl)cc1Cl [CBK113685]	84.9%
Oc1cccc(-c2cn3ccnc3c(NCc3ccccn3)n2)c1 [CBK037535]	102%
Cc1nc(CCNCc2c(C(C)C)nn(C)c2N(C)C)cs1 [CBK304002]	98.8%
O=C(O)c1ccccc1C(=O)N1CCC2(CC1)OCCc1c2[nH]c2ccccc12 [CBK046981]	94.9%
COCCN1CCN(c2nc(-c3ccncc3)nc3c2CCC3)CC1 [CBK306101]	95.7%
Cc1ccc(C(=O)Nc2ccccc2C(=O)NC(C)C(=O)O)cc1 (centres unmarked) [CBK263540]	93.9%
CC(C)(C)C1CCc2c(sc(NC(=S)NC(=O)COc3ccccc3)c2C(N)=O)C1 (centres unmarked) [CBK268634]	107%
O=C(CCn1c(=O)oc2ccccc21)Nc1ccc(S(=O)(=O)N2CCCCC2)cc1 [CBK268365]	82%
O=C(C1CC(O)CN1)N1CC2(CCCC2)c2c(F)cccc21 (centres unmarked) [CBK304269C]	99%
COC(=O)c1ccc(CSc2nnc(-n3sc4ccccc4c3=O)s2)cc1 [CBK116502]	90.6%
O=c1[nH]c2cccc3c2n1C[C@H](NCCc1ccccc1)C3 [CBK016688C]	105%
COc1ccc(Cn2c(-c3ccc(OC)c(O)c3)nc3ccccc32)cc1O [CBK263370]	108%
O=C(NCCN1CCCCC1)C1CC(=O)N(c2ccccc2F)C1 (centres unmarked) [CBK305148]	86.8%
COC(=O)CCc1ccc(S(=O)(=O)N2CCCN(Cc3cccc(Br)c3)CC2)cc1 [CBK062981]	102%
COc1ccc(C(=O)Nc2ccccc2Nc2cc(-c3ccccc3)nn2-c2ccccc2)cc1 [CBK261296]	88.4%
CN(CC(=O)N1CCCCCC1)S(=O)(=O)c1cc(Cl)ccc1Cl [CBK091841]	92.4%
CNC(=O)c1c(NC(=O)c2nc(SCc3ccccc3)ncc2Cl)sc2c1CCCC2 [CBK269087]	93.9%

Compound	viability at 28.5 h, 10 µM
O=S(=O)(Nc1nc(-c2sccc2Cl)cs1)c1cc(Br)c(Cl)s1 [CBK200030]	107%
O=P(O)(COc1ccccc1)COc1ccccc1 [CBK261620]	88.8%
CCCc1cc(CNC(=O)c2cnn(-c3ccc(F)cc3)c2)on1 [CBK282463]	86.6%
CN1CCN(Cc2c(O)ccc3occ(C(=O)c4ccccc4)c23)CC1 [CBK111438]	98.2%
OC(COc1cccc2c1CCCC2)CN1CCC(O)(c2ccccc2)CC1 (centres unmarked) [CBK003585]	87.3%
O=C1NC2(CCCCC2)C(=O)N1Cc1cnn(-c2ccccc2)n1 [CBK305570]	97.8%
Cc1nn(C)c(Cl)c1S(=O)(=O)Nc1nnc(C(F)(F)F)s1 [CBK062003]	92%
CN1C[C@@H](NC(=O)Nc2cccc(C#N)c2)C[C@H]1c1nc(-c2ccncc2)no1 [CBK288856]	112%
CCCC1SCC(=O)N1c1nncs1 (centres unmarked) [CBK023497]	95.4%
COc1cc(NC(=O)c2cc3nc(-c4cccs4)cc(C(F)(F)Cl)n3n2)c(C(C)=O)cc1OC [CBK268312]	100%
Nc1ncc(-c2ccc(C(=O)N3CCOCC3)cc2)nc1C(=O)NC1CCCC1 [CBK149155]	89.3%
COc1nccnc1OC1CCN(CC2CCCCC2)CC1 [CBK084263]	96.2%
CO[C@H]1CNC[C@@H]1NC(=O)c1cccc2c1NCCC2 [CBK307421]	115%
O=[N+]([O-])c1ccc(CN2CCN(C/C=C/c3ccccc3)CC2)o1 [CBK026551]	85.1%
COc1ccc([C@H]2CN(Cc3ccccc3)C[C@@H]2NC(=O)CCc2ccco2)cc1 [CBK286477]	87.6%
O=c1cc(O)c2c(=O)n(-c3ccccc3)c(-c3ccccc3)cc2o1 [CBK006116]	89.1%
CS(=O)(=O)N1CC2(CCN(C(=O)N(CCN)CCc3ccc(Cl)cc3)CC2)c2ccccc21 [CBK001687C]	111%
Cc1cn(CC(=O)N2CCC(Cn3cncn3)(C3CCCCC3)CC2)c(=O)[nH]c1=O [CBK136800]	88.4%
COc1ccc(NC(=O)CSc2nnc(-c3ccncc3)n2-c2ccc(C)cc2)cc1Cl [CBK266187]	98.3%
CS(=O)(=O)N1CCN(c2ccccc2NC(=O)COc2ccccc2Cl)CC1 [CBK269250]	103%
